Source: ChEMBL document CHEMBL1201862, “PubChem BioAssay data set” (2004)
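How tested: cells in 96-well plates exposed to compound for 48 hours at five concentrations. GI50 is the concentration that inhibits growth by half.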 The source made the active and inactive calls. Cut-off read from the data, not from the text of the source: active = GI50 up to about 1.1 µM and inactive = higher.

What was measured:
Assay in all cases: DTP human tumour cell line panel, 48 h
[1] = tested on: SF-539
[2] = tested on: HCT-15
[3] = tested on: MDA-MB-231
[4] = tested on: OVCAR-8
[5] = tested on: HT-29
[6] = tested on: OVCAR-5
[7] = tested on: SK-MEL-2
[8] = tested on: SW-620
[9] = tested on: SNB-75
[10] = tested on: K562
[11] = tested on: EKVX
[12] = tested on: SK-MEL-28
[13] = tested on: A498
[14] = tested on: UO-31
[15] = tested on: HCT-116
[16] = tested on: SF-268
[17] = tested on: NCI-H460
[18] = tested on: SK-OV-3
[19] = tested on: SR
[20] = tested on: HOP-92

**Q.** How did the GI50 [1] turn out when `Nc1cc2nc(-c3ccccc3)cn2cn1` was run?
**A.** > 100 µM (inactive)

**Q.** And the GI50 [2]?
**A.** > 100 µM

**Q.** What about the GI50 [3] of the same compound?
**A.** > 100 µM (inactive)

**Q.** What about the GI50 [4] of the same compound?
**A.** > 100 µM (inactive)

**Q.** And the GI50 [5]?
**A.** 47.2 µM (inactive)

**Q.** What about the GI50 [6] of the same compound?
**A.** 79.6 µM (inactive)

**Q.** What about the GI50 [7] of the same compound?
**A.** > 100 µM (inactive)

**Q.** What about the GI50 [8] of the same compound?
**A.** > 100 µM (inactive)

**Q.** What about the GI50 [9] of the same compound?
**A.** 40.2 µM (inactive)

**Q.** And the GI50 [10]?
**A.** > 100 µM (inactive)

**Q.** And the GI50 [11]?
**A.** 29.3 µM (inactive)

**Q.** And the GI50 [12]?
**A.** > 100 µM (inactive)

**Q.** And the GI50 [13]?
**A.** 27.9 µM (inactive)

**Q.** And the GI50 [14]?
**A.** 32.4 µM (inactive)

**Q.** What about the GI50 [15] of the same compound?
**A.** > 100 µM (inactive)

**Q.** And the GI50 [16]?
**A.** > 100 µM (inactive)

**Q.** And the GI50 [17]?
**A.** 99.1 µM (inactive)

**Q.** And the GI50 [18]?
**A.** > 100 µM (inactive)

**Q.** Which GI50 [1] does the source give for `COC12C=CC(CC1)C1C(=O)c3c(C)c(C)n(C)c3C(=O)C12` (configuration not stated) here?
**A.** > 100 µM (inactive)

**Q.** And the GI50 [2]?
**A.** 15.4 µM

**Q.** And the GI50 [4]?
**A.** > 100 µM (inactive)

**Q.** And the GI50 [19]?
**A.** 27 µM (inactive)

**Q.** What about the GI50 [5] of the same compound?
**A.** > 100 µM (inactive)

**Q.** What about the GI50 [6] of the same compound?
**A.** > 100 µM (inactive)

**Q.** And the GI50 [7]?
**A.** > 100 µM (inactive)

**Q.** And the GI50 [8]?
**A.** > 100 µM (inactive)

**Q.** What about the GI50 [9] of the same compound?
**A.** 67.6 µM (inactive)

**Q.** And the GI50 [10]?
**A.** > 100 µM (inactive)

**Q.** And the GI50 [11]?
**A.** > 100 µM (inactive)

**Q.** What about the GI50 [13] of the same compound?
**A.** > 100 µM (inactive)

**Q.** And the GI50 [14]?
**A.** 36.1 µM (inactive)

**Q.** What about the GI50 [15] of the same compound?
**A.** 89.5 µM (inactive)

**Q.** What about the GI50 [16] of the same compound?
**A.** > 100 µM (inactive)

**Q.** What about the GI50 [17] of the same compound?
**A.** > 100 µM (inactive)

**Q.** And the GI50 [18]?
**A.** > 100 µM (inactive)

**Q.** For `N=S(c1ccccc1)c1ccccc1[N+](=O)[O-]` (configuration not stated), which GI50 [1] is on record?
**A.** 18.5 µM (inactive)

**Q.** And the GI50 [2]?
**A.** 16.6 µM

**Q.** And the GI50 [4]?
**A.** 23.8 µM (inactive)

**Q.** And the GI50 [19]?
**A.** 18.3 µM (inactive)

**Q.** What about the GI50 [5] of the same compound?
**A.** 21.5 µM (inactive)

**Q.** And the GI50 [6]?
**A.** 20.1 µM (inactive)

**Q.** And the GI50 [7]?
**A.** 29.3 µM (inactive)

**Q.** And the GI50 [8]?
**A.** 16.9 µM (inactive)

**Q.** And the GI50 [9]?
**A.** 25.8 µM (inactive)

**Q.** What about the GI50 [10] of the same compound?
**A.** 10.4 µM (inactive)

**Q.** What about the GI50 [11] of the same compound?
**A.** 19.8 µM (inactive)

**Q.** And the GI50 [13]?
**A.** 34.3 µM (inactive)

**Q.** What about the GI50 [14] of the same compound?
**A.** 16 µM (inactive)

**Q.** What about the GI50 [15] of the same compound?
**A.** 17.8 µM (inactive)

**Q.** What about the GI50 [16] of the same compound?
**A.** 19.8 µM (inactive)

**Q.** And the GI50 [17]?
**A.** 28.1 µM (inactive)

**Q.** And the GI50 [18]?
**A.** 33 µM (inactive)

**Q.** What does the source list for `COc1ccc(NC(=O)C/C(C)=N\N=C(N)N)c([N+](=O)[O-])c1`?
**A.** GI50 [1]: > 100 µM (inactive); GI50 [2]: > 100 µM; GI50 [4]: > 100 µM (inactive); GI50 [19]: 23.3 µM (inactive); GI50 [5]: > 100 µM (inactive); GI50 [6]: > 100 µM (inactive); GI50 [7]: > 100 µM (inactive); GI50 [9]: > 100 µM (inactive); GI50 [10]: > 100 µM (inactive); GI50 [11]: > 100 µM (inactive); GI50 [12]: > 100 µM (inactive); GI50 [13]: > 100 µM (inactive); GI50 [14]: > 100 µM (inactive); GI50 [15]: > 100 µM (inactive); GI50 [20]: > 100 µM (inactive); GI50 [16]: > 100 µM (inactive); GI50 [17]: > 100 µM (inactive); GI50 [18]: > 100 µM (inactive)

**Q.** With `CCOC(=O)CNC(=O)CNC(=O)CNC(=O)CNNc1c(OCc2ccccc2)c(=O)c1=O` as the compound, how does the GI50 [2] read?
**A.** > 100 µM

**Q.** What about the GI50 [3] of the same compound?
**A.** > 100 µM (inactive)

**Q.** And the GI50 [4]?
**A.** > 100 µM (inactive)

**Q.** And the GI50 [5]?
**A.** > 100 µM (inactive)

**Q.** And the GI50 [6]?
**A.** > 100 µM (inactive)

**Q.** What about the GI50 [7] of the same compound?
**A.** > 100 µM (inactive)

**Q.** And the GI50 [8]?
**A.** > 100 µM (inactive)

**Q.** What about the GI50 [9] of the same compound?
**A.** > 100 µM (inactive)

**Q.** What about the GI50 [10] of the same compound?
**A.** > 100 µM (inactive)

**Q.** What about the GI50 [11] of the same compound?
**A.** > 100 µM (inactive)

**Q.** And the GI50 [12]?
**A.** > 100 µM (inactive)

**Q.** What about the GI50 [13] of the same compound?
**A.** > 100 µM (inactive)

**Q.** What about the GI50 [14] of the same compound?
**A.** > 100 µM (inactive)

**Q.** What about the GI50 [15] of the same compound?
**A.** > 100 µM (inactive)

**Q.** And the GI50 [16]?
**A.** > 100 µM (inactive)

**Q.** And the GI50 [18]?
**A.** > 100 µM (inactive)

**Q.** What does the source list for `CCOc1cc(C=O)c2c(ccc3ccc(OC)c(OC)c32)c1OC`?
**A.** GI50 [2]: 49.7 µM; GI50 [3]: > 100 µM (inactive); GI50 [4]: 50 µM (inactive); GI50 [5]: 37.5 µM (inactive); GI50 [6]: > 100 µM (inactive); GI50 [7]: 36.8 µM (inactive); GI50 [9]: 36.3 µM (inactive); GI50 [10]: 14.5 µM (inactive); GI50 [11]: 7.1 µM (inactive); GI50 [12]: 89.9 µM (inactive); GI50 [14]: 66.8 µM (inactive); GI50 [15]: 36 µM (inactive); GI50 [20]: > 100 µM (inactive); GI50 [16]: > 100 µM (inactive); GI50 [17]: 20 µM (inactive); GI50 [18]: > 100 µM (inactive)

**Q.** Which results are given for `CN(C)/C=N/c1nc2c(ncn2C2OC(CO)C(O)C2O)c(=O)[nH]1` (configuration not stated)?
**A.** GI50 [1]: > 100 µM (inactive); GI50 [2]: > 100 µM; GI50 [4]: > 100 µM (inactive); GI50 [19]: > 100 µM (inactive); GI50 [5]: > 100 µM (inactive); GI50 [6]: > 100 µM (inactive); GI50 [7]: > 100 µM (inactive); GI50 [8]: > 100 µM (inactive); GI50 [9]: > 100 µM (inactive); GI50 [10]: > 100 µM (inactive); GI50 [11]: > 100 µM (inactive); GI50 [13]: > 100 µM (inactive); GI50 [14]: > 100 µM (inactive); GI50 [15]: > 100 µM (inactive); GI50 [20]: > 100 µM (inactive); GI50 [16]: > 100 µM (inactive); GI50 [17]: > 100 µM (inactive); GI50 [18]: > 100 µM (inactive)

**Q.** Which GI50 [2] does the source give for `Oc1ccc(O)c(Sc2nnc(CCCCCCCCc3nnc(Sc4cc(O)ccc4O)o3)o2)c1` here?
**A.** 88.7 µM

**Q.** What about the GI50 [3] of the same compound?
**A.** > 100 µM (inactive)

**Q.** And the GI50 [5]?
**A.** > 100 µM (inactive)

**Q.** And the GI50 [6]?
**A.** 95.9 µM (inactive)

**Q.** What about the GI50 [7] of the same compound?
**A.** > 100 µM (inactive)

**Q.** And the GI50 [8]?
**A.** 31.3 µM (inactive)

**Q.** And the GI50 [9]?
**A.** > 100 µM (inactive)

**Q.** And the GI50 [10]?
**A.** 39.8 µM (inactive)

**Q.** What about the GI50 [11] of the same compound?
**A.** > 100 µM (inactive)

**Q.** What about the GI50 [12] of the same compound?
**A.** > 100 µM (inactive)

**Q.** And the GI50 [13]?
**A.** > 100 µM (inactive)

**Q.** What about the GI50 [14] of the same compound?
**A.** 16.6 µM (inactive)

**Q.** What about the GI50 [15] of the same compound?
**A.** 18.1 µM (inactive)

**Q.** What about the GI50 [20] of the same compound?
**A.** 24 µM (inactive)

**Q.** What about the GI50 [16] of the same compound?
**A.** 73.6 µM (inactive)

**Q.** What about the GI50 [17] of the same compound?
**A.** 72.9 µM (inactive)

**Q.** What about the GI50 [18] of the same compound?
**A.** > 100 µM (inactive)
